Results: patent publication US20060154255A1, “Blood and tissue sample assessment of mitochondrial function and biochemistry as a tool for selection for feed efficiency and other production parameters” (priority 2002, published 2006)

Tests used:
[1] = tested on: breast muscle mitochondria; experiment: H2O2 production (electron leak) in breast muscle mitochondria with respiratory chain inhibitors; format: biochemical, broilers
leg muscle mitochondria = experiment: H2O2 production (electron leak) in leg muscle mitochondria with respiratory chain inhibitors; format: biochemical, broilers; conditions: low FE leg muscle mitochondria; versus no inhibitor (NI); rotenone 10 μM; P<0.07
[2] = breast muscle mitochondria, inhibition at Complex II or Q cycle of Complex III, malonate 7 μM, TTFA 8 μM, myxothiazol 13 μM
[3] = low FE breast muscle mitochondria, versus no inhibitor (NI), rotenone 10 μM, antimycin A 13 μM

| Compound | H2O2 production [1, 2] | H2O2 production [1, 3] | H2O2 production (leg muscle mitochondria) |
| --- | --- | --- | --- |
| O=C(O)CC(=O)O [malonate] | No differences were observed | – | – |
| O=C(CC(=O)C(F)(F)F)c1cccs1 [TTFA, 4,4,4-trifluoro-1-[2-thienyl]-1,3-butanedione] | No differences were observed | – | – |
| C=C(C)[C@H]1Cc2c(ccc3c2O[C@@H]2COc4cc(OC)c(OC)cc4[C@@H]2C3=O)O1 [rotenone] | – | raised H2O2 production | an elevation |
| CO/C(=C/C(N)=O)[C@H](C)[C@H](/C=C/c1csc(-c2csc([C@@H](C)/C=C/C=C/C(C)C)n2)n1)OC [myxothiazol] | No differences were observed | – | – |
| antimycin A | – | raised H2O2 production | – |
